Results from US20220304950A1, “[…] THE TREATMENT OF PATIENTS WITH MAJOR DEPRESSIVE DISORDER, INCLUDING SUICIDALITY” (JANSSEN PHARMACEUTICALS, INC., priority 2019, published 2022).

Legend:
Type in all cases: in vivo, human
[1] = test system: adult patients with MDD assessed to be at imminent risk for suicide; experiment: CGI-SS-R subgroup analysis by prior suicide attempt, Examples 4 and 5; details: 24 hours after the first dose
Text: FIG. 17 is a forest plot for the prior suicide attempt sub-group analysis using CGI-SS-R for Examples 4 and 5.
In certain aspects, the disclosure relates to methods for reducing symptoms of major depressive disorder, including suicidality, in a human patient assessed to be at imminent risk for suicide comprising the administration of esketamine in addition to standard of care treatment. As reflected in the reported data, for depressive symptoms, the treatment differences favored the administration of esketamine plus standard of care treatment over standard of care treatment alone. In addition, treatment differences between patients that previously attempted suicide (attempters) and those that had not (non-attempters) were also present (see, e.g., data reflected in FIGS. 9-17). […] Improvement in this population is of clinical relevance considering that prior suicide attempt has been identified as the single most important predictor/risk factor for suicide in subjects with MDD.

[2] = test system: adult patients with MDD assessed to be at imminent risk for suicide; experiment: Treatment disposition, Study 2 (Example 5); details: Esk 84 mg + SOC, double-blind phase, all randomized
Procedure: A total of 273 subjects were screened across 50 sites in 12 countries throughout the study period. Of those, 230 subjects were randomized to 1 of 2 treatment groups in a 1:1 ratio (115 in esketamine 84 mg+SOC and 115 in placebo+SOC). Randomization was stratified by study center and by the physician's assessment of the subject's need of standard of care antidepressant treatment (i.e., antidepressant monotherapy or an antidepressant plus augmentation therapy); the standard of care was determined prior to randomization on Day 1. […] The mean age was 40.8 years, ranging from 18 to 64 years.

[3] = test system: adult patients with MDD assessed to be at imminent risk for suicide; experiment: CGI-SS-R (SIBAT), Study 2 (Example 5); details: 24 hours post first dose
Text: The SIBAT is a suicide assessment tool that captures suicidal ideation and behavior(s) as reported by patients and reviewed by clinicians permitting efficient collection and documentation of clinical impression of severity of suicidality and imminent and long-term suicide risk and treatment plans.
The CGI-SS-R rating is scored on a 7-point scale from 0 (normal, not at all suicidal) to 6 (among the most extremely suicidal patients) and will be based on the totality of information available to the clinician, including information from the SIBAT. The CGI-SS-R summarizes the clinician's overall impression of severity of suicidality and will be used to assess the key secondary endpoint in this study. This rating operates like numerous other CGI-severity scales that have been used in other psychiatric studies. These instruments have shown clinical validity and sensitivity to change.
Key secondary efficacy variable: Change in CGI-SS-R from baseline to 24 hours post first dose (Day 2). The CGI-SS-R, derived from the Suicidal Ideation and Behavior Assessment Tool (SIBAT) rating is scored on a 7-point scale from 0 (normal, not at all suicidal) to 6 (among the most extremely suicidal patients).

[4] = test system: adult patients with MDD assessed to be at imminent risk for suicide; experiment: Treatment disposition, Study 1 (Example 4); details: Esk 84 mg + SOC, double-blind phase, all randomized
Procedure: A total of 270 subjects were screened across 51 sites in 10 countries throughout the study period. Of those, 226 subjects were randomized to 1 of 2 treatment groups in a 1:1 ratio (114 in esketamine 84 mg+SOC and 112 in placebo+SOC). The randomization was stratified by study center and by the physician's assessment of the participant's need of standard of care antidepressant treatment prior to randomization on Day 1 (i.e., antidepressant monotherapy or antidepressant plus augmentation therapy).

[5] = test system: adult patients with MDD assessed to be at imminent risk for suicide; experiment: Adverse events (TEAEs, SAEs), Study 2 (Example 5)
Procedure: The primary objective is to compare the efficacy of ESK+SOC to that of PBO+SOC in reducing the symptoms of MDD, including suicidal ideation, as measured by the change from baseline on the MADRS total score at 24 hours post-first dose.

[6] = test system: adult patients with MDD assessed to be at imminent risk for suicide; experiment: MADRS total score, Study 2 (Example 5); details: 24 hours post first dose
Text: The primary efficacy evaluation will be the MADRS total score. The MADRS will be performed using the Structured Interview Guide for the Montgomery Asberg Depression Rating Scale. The MADRS is a clinician-rated scale designed to be used in subjects with MDD to measure depression severity and detect changes due to antidepressant treatment. The test consists of 10 items, each of which is scored from 0 (item not present or normal) to 6 (severe or continuous presence of the symptoms), for a total possible score of 60. Higher scores represent a more severe condition. The MADRS evaluates apparent sadness, reported sadness, inner tension, sleep, appetite, concentration, lassitude, interest level, pessimistic thoughts, and suicidal thoughts.
The typical recall period for the MADRS is 7 days. In this study, the MADRS will also be administered using a since last assessment recall, a 4-hour recall on Day 1 and Day 25 postdose, and a 24-hour recall on Day 2. For the MADRS performed at 4 hours postdose on Days 1 and 25, the MADRS scores for the sleep item recorded predose on the same day will be carried forward.
The primary objective is to compare the efficacy of ESK+SOC to that of PBO+SOC in reducing the symptoms of MDD, including suicidal ideation, as measured by the change from baseline on the MADRS total score at 24 hours post-first dose. […]
Primary efficacy variable/Primary timepoint: Change in MADRS total score from baseline to 24 hours post first dose (Day 2). The MADRS consists of 10 items that cover all of the core depressive symptoms: each item is scored from 0 (symptom is not present or is normal) to 6 (severe or continuous presence of the symptom). A total score (0 to 60) is calculated by summing the scores of all 10 items. […]

[7] = esketamine 84 mg+SOC, double-blind phase
[8] = esketamine 84 mg+SOC, safety set

SMILES: CN[C@]1(c2ccccc2Cl)CCCCC1=O [esketamine, (S)-2-(2-chlorophenyl)-2-(methylamino)cyclohexanone]
- Odds ratio (95% CrI) for an improved CGI-SS-R score relative to placebo+SOC ([1]; subjects with history of prior suicide attempt (FIG. 17)): 2.09 (1.06; 4.23)
- Odds ratio (95% CrI) for an improved CGI-SS-R score relative to placebo+SOC ([1]; subpopulation without prior suicide attempt (FIG. 17)): 1.14 (0.46; 2.83)
- Discontinuation due to adverse event, subjects % [2]: 7.8%
- Discontinuation due to adverse event, subjects n [2]: 9
- CGI-SS-R change, Hodges-Lehmann estimate (95% CI) of the difference vs placebo+SOC [3]: 0.0 (0.00; 0.00)
- CGI-SS-R, change from baseline to Day 2 (LOCF), median (range) ([3]; esketamine 84 mg+SOC): −1.0 (−6; 2)
- Discontinuation due to adverse event, subjects % [4]: 4.4%
- Discontinuation due to adverse event, subjects n [4]: 5
- Deaths during the study [5]: no deaths
- Psychiatric SAEs related to suicidal ideation, suicide attempt, or worsening of depression, participants ([5]; ESK+SOC, 9-week follow-up phase): 9
- SAE depersonalization/derealization disorder, participants ([5]; ESK+SOC, double-blind phase): 1
- SAE suicidal ideation, participants ([5]; ESK+SOC, double-blind phase): 1
- SAEs: suicide attempts, number ([5]; ESK+SOC, double-blind phase): 3
- SAE acute stress disorder, participants ([5]; ESK+SOC, follow-up phase): 1
- SAE depression-related event, participants ([5]; ESK+SOC, follow-up phase): 1
- SAE hemothorax, participants ([5]; ESK+SOC, follow-up phase): 1
- SAEs: suicidal ideation-related events, number ([5]; ESK+SOC, follow-up phase): 3
- SAEs: suicide attempts, number ([5]; ESK+SOC, follow-up phase): 4
- Events in ESK+SOC participants considered related to study medication, number ([5]; ESK+SOC, kind of event not given): 17
- Psychiatric SAEs related to suicidal ideation, suicide attempt, or worsening of depression, frequency ([5]; double-blind phase): < 5%
- Subjects with at least one TEAE, % [5, 7]: 91.2%
- Subjects with serious TEAEs, % [5, 7]: 4.4%
- TEAE Dissociation, subjects % [5, 7]: 38.6%
- TEAE Dizziness, subjects % [5, 7]: 41.2%
- TEAE Nausea, subjects % [5, 7]: 33.3%
- TEAE dysgeusia, subjects % [5, 7]: 25.4%
- TEAE headache, subjects % [5, 7]: 21.9%
- TEAE paraesthesia, subjects % [5, 7]: 20.2%
- TEAE somnolence, subjects % [5, 7]: 22.8%
- Subjects with serious AEs, % ([5]; esketamine 84 mg+SOC, follow-up phase): 10.1%
- Study medication permanently stopped due to an adverse event, subjects % [5, 8]: 7.9%
- Study medication permanently stopped due to an adverse event, subjects n [5, 8]: 9
- Overall safety and tolerability (in words) ([5]; intranasal ESK+SOC): safe and tolerated
- Effect size for the primary endpoint (MADRS) [6]: 0.35
- MADRS total score change, least-square mean difference (SE) vs placebo+SOC ([6]; ANCOVA LOCF): −3.9 (1.39)
- MADRS total score, change from baseline to Day 2 (LOCF), mean (SD) ([6]; esketamine 84 mg+SOC): −15.7 (11.56)
